Here are results for 17 molecules from US8906952B2, “Indole derivative or pharmaceutically acceptable salt thereof, preparation method thereof, and pharmaceutical composition for preventing or treating metabolic diseases containing same as active ingredient” (Korea Research Institute of Bioscience and Biotechnology, priority 2011, dated 2014).

The target of assay [1] is T1, hDGAT-1 (HuTu 80) (Homo sapiens, UniProt O75907).
T1 construct: microsomal protein isolated from human duodenal adenocarcinoma (‘Hutu 80’); endogenous in cells; host or cells: HuTu 80 human duodenal adenocarcinoma cells (microsomes)
T1 sequence (O75907 1-488): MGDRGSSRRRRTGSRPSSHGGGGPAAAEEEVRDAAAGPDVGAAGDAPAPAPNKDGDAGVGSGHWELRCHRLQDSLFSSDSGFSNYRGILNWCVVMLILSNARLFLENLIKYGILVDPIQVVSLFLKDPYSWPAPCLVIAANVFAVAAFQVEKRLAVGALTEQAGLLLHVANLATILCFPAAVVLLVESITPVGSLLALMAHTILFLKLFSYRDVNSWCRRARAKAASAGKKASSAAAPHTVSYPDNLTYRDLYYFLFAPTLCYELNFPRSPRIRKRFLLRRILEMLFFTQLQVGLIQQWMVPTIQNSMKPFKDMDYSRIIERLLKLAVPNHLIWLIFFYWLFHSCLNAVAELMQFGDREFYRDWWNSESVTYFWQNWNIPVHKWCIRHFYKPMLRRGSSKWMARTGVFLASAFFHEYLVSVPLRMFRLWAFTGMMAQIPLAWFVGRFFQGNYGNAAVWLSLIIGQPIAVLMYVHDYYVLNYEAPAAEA
Kind of assay: DGAT enzyme inhibition test, microsomal protein from human duodenal adenocarcinoma (Hutu 80). The assay is classed as biochemical. Particulars: microsomal protein from HuTu 80. An excerpt:
To investigate inhibitory effect of the compounds of Examples 1-33 against DGAT enzyme activity, DGAT enzyme inhibition and DGAT2 selectivity were investigated using zymogen including:
2) DGAT enzyme derived from human duodenal adenocarcinoma (‘Hutu 80’), and
To be specific, for the purpose of measuring human-derived DGAT enzyme inhibitory activity, using the zymogen, including enzymes derived from insect cell overexpressing human DGAT1 and DGAT2 (‘sf9’), microsomal protein isolated from human duodenal adenocarcinoma (‘Hutu 80’), and microsomal protein isolated from rat, and according to Coleman et al., (Methods Enzymol., 98-103, 1992), and substrate including 1,2-diacylglycerol(Sigma, D0138) and [^14C]palmitoyl-CoA (Amersham, CFA583), the amount of radiation of [^14C]triacylglycerol produced after enzymatic reaction was measured.
To be more specific, to the reaction solution containing 175 mM Tris-HCl (pH 8.0), 20 μl bovine serum albumin (10 mg/ml), 100 mM magnesium chloride, 30 μM [^14C]palmitoyl CoA (0.02 μCi, Amersham) and 200 μM 1,2-dioleoylglycerol, reagent dissolved in dimethylsulfoxide (10.0 μl) was added. After introducing 100 to 200 μg isolated microsomal protein and allowing the same to react at 25° C. for 10 min, the reaction was stopped by adding 1.5 ml stop solution (2-propanol:heptane:water=80:20:2, v:v:v). To isolate the product of the reaction (i.e., [^14C]triacylglycerol), 1 ml heptane and 0.5 ml distilled water were added and then decocted. After taking 1 ml supernatant, 2 ml alkaline ethanol solution (ethanol:0.5 N sodium hydroxide:water=50:10:40, v:v:v) were added and then decocted. After taking 0.65 ml supernatant from the decoction, the amount of radiation was measured with liquid scintillation counter (LSC). The DGAT inhibitory activity was calculated with Mathematical Expression 1 below:
T denotes cpm of experimental group in which the enzymatic reaction solution was treated with the sample,
C denotes cpm of control group in which the enzymatic reaction solution was not treated with the sample, and
B denotes cpm of control group treated with the sample without zymogen.

The subject of assay [2] is HepG2 cells. Kind of assay: DGAT inhibitory effect in HepG2 cells (triglyceride production from [14C]glycerol). The assay is classed as cell-based. The following applies: Homo sapiens; for activity at 10 µM: HepG2, 6 h, DMSO control = 100, read-out: Triglyceride production rate (%)/HepG2 cells at 10 μM; for inhibition at 10 µM: HepG2, 10 μM, read-out: biosynthesis inhibition rate of triglyceride. Here is the method:
To investigate inhibition effect on intracellular DGAT enzyme activity of the compounds obtained in Examples 1-51, intracellular DGAT enzyme activity was measured using human-derived liver HepG2 cells.
HepG2 cells were purchased from ATCC, and cultured in 37° C., 5% CO2 incubator including minimum essential medium (2 mM L-glutamine, earle's BSS adjusted to contain 1.5 g/L sodium bicarbonate, 0.1 mM nonessential amino acids, and 1 mM sodium pyruvate) added with 10% fetal bovine serum (FBS) and 1% antibiotic (100 U/ml penicillin and 100 µg/ml streptomycin).
The intracellular DGAT enzyme activity was measured based on an amount of triglycerides produced in the cultured HepG2 cells, by adding 10 μM enzyme inhibitor compounds obtained in Examples 1-51, respectively, and then determining the effect of the enzyme inhibitors according to reduction rate of the triglyceride production.
Specifically, cells were seeded 1×10^6 cell/ml per well of the 24 well culture plate, and 24 hours after incubation, medium was exchanged with FBS-free DMEM medium, and sample of 0.2 mCi [^14C]glycerol (Amersham) was added as substrate, and the reaction was allowed to occur for 6 hr. The induced production of triglyceride was catalyzed by the DGAT enzyme, and DGAT enzyme activity was determined based on the amount of production of triglyceride which was measured based on the amount of radiation. The sample was dissolved in dimethylsulfoxide (DMSO) to be used, and the control group in the triglyceride production reaction was reacted with dimethylsulfoxide only (i.e., without sample), and the amount of the triglyceride production rate was set to 100.
After the reaction completed, the substrate [^14C]glycerol which was either not absorbed into cells or not used for the reaction, were removed with phosphate-buffer-saline (PBS), and 0.5 ml extraction solvent (hexane:isopropanol=3:2, v:v) was added to extract full fat containing triglycerides. With 0.5 ml extraction solvent, extract was obtained two times for 30 min each, and 1 ml of the extract was concentrated with nitrogen gas. After removing the extraction solvent, the total fat was dissolved in organic solvent (chloroform:methanol=2:1) and spotted with thin-layer chromatography (TLC:silica gel 60F254, thickness: 0.5 mm, Merck) on the developing solvent (hexane:diethyl ether:acetic acid=80:20:1, v: v: v). Triglycerides (Rf value: 0.4) were isolated on TLC, and after exposing the TLC plate to the film with photosensitivity to radiation energy (imaging plate' Fujifilm, BMS-MS 2040) for 3 hr, the amount of [^14C] radiation of triglyceride was measured by imaging analysis (FLA 7000). The remaining cells after the extraction were dissolved in 0.3 ml 0.1 N sodium hydroxide for use in the measurement of protein concentration of the cells used for the reaction.
The experimental errors among the respective experimental groups were compensated with the experimental value which was obtained by dividing the measured radiation of triglyceride by protein concentration, and the production rate of triglyceride according to the respective compounds of Examples 1-51 are tabulated below.

Where only a bound is given, the exact number is not on record here.

As usually defined, the IC50 is the concentration needed to halve the response being measured. A lower IC50 goes with higher potency. As for `CC(C)=CCn1cc(/C=C/C(=O)N(NC(=O)c2ccccc2)C(C)C)c2ccccc21` [Example 27, (E)-N′-isopropyl-N′-(3-(1-(3-methylbut-2-enyl)-1H-indol-3-yl)acryloyl)benzohydrazide], inhibition in assay [1] was half-maximal at 2.6 µM (IC50). In addition, in assay [2], the activity at 10 µM turned out to be 58.5%.

`CC(C)N(NC(=O)c1ccccc1)C(=O)/C=C/c1cn(C(=O)c2ccccc2)c2ccccc12` [Example 32, (E)-N′-(3-(1-benzoyl-1H-indol-3-yl)acryloyl)-N′-isopropylbenzohydrazide] gave an IC50 in assay [1] of 0.97 µM. Further, in assay [2], the activity at 10 µM came to 91.4%.

Take `CC(C)=CCn1cc(/C=C/C(=O)N(NC(=O)c2ccc(F)cc2)C(C)C)c2ccccc21` [Example 49, (E)-4-fluoro-N′-isopropyl-N′-(3-(1-(3-methylbut-2-enyl)-1H-indol-3-yl)acryloyl)benzohydrazide]: the activity at 10 µM in assay [2] worked out at 55.7%.

Broadly, the inhibition is how much of the control response was suppressed. For `CC(C)N(NC(=O)c1ccccc1)C(=O)/C=C/c1cn(CC2CC2)c2ccccc12` [Example 28, (E)-N′-(3-(1-(cyclopropylmethyl)-1H-indol-3-yl)acryloyl)-N′-isopropylbenzohydrazide], the IC50 in assay [1] amounted to 8.1 µM. For the same molecule, in assay [2], the activity at 10 µM stood at 64.4% and the inhibition at 10 µM is 30 to 40%.

In assay [1], `CC(C)N(NC(=O)c1cccc(F)c1)C(=O)/C=C/c1cn(C(=O)OC(C)(C)C)c2ccccc12` [Example 15, (E)-tert-butyl 3-(3-(2-(3-fluorobenzoyl)-1-isopropylhydrazinyl)-3-oxoprop-1-enyl)-1H-indole-1-carboxylate] registered a half-maximal inhibitory concentration (IC50) of 1.1 µM. In assay [2], the activity at 10 µM is 71.2% and the inhibition at 10 µM fell in the range of 20 to 30%.

On to `COC(=O)COc1cccc(C(=O)NN(C(=O)/C=C/c2cn(C(=O)OC(C)(C)C)c3ccccc23)C(C)C)c1` [Example 18, (E)-tert-butyl 3-(3-(1-isopropyl-2-(3-(2-methoxy-2-oxoethoxy)benzoyl)hydrazinyl)-3-oxoprop-1-enyl)-1H-indole-1-carboxylate], for which the IC50 in assay [1] came out at 3.2 µM. Further, in assay [2], the activity at 10 µM is 102%.

For `CC(C)N(NC(=O)c1ccc(OCCN2CCOCC2)cc1)C(=O)/C=C/c1cn(C(=O)OC(C)(C)C)c2ccccc12` [Example 9, (E)-tert-butyl 3-(3-(1-isopropyl-2-(4-(2-morpholinoethoxy)benzoyl)hydrazinyl)-3-oxoprop-1-enyl)-1H-indole-1-carboxylate], 19.6 µM corresponded to half-maximal inhibition in assay [1] (IC50). The activity at 10 µM in assay [2] amounted to 83.8%.

Molecule `CC(C)N(NC(=O)c1cccc(Br)c1)C(=O)/C=C/c1cn(C(=O)OC(C)(C)C)c2ccccc12` [Example 12, (E)-tert-butyl 3-(3-(2-(3-bromobenzoyl)-1-isopropylhydrazinyl)-3-oxoprop-1-enyl)-1H-indole-1-carboxylate] displayed an IC50 in assay [1] of 2.6 µM. The activity at 10 µM in assay [2] amounted to 93.5%.

For `CC(C)N(NC(=O)c1ccccc1)C(=O)CCc1cn(C(=O)OC(C)(C)C)c2ccccc12` [Example 24, tert-butyl 3-(3-(2-benzoyl-1-isopropylhydrazinyl)-3-oxopropyl)-1H-indole-1-carboxylate], in assay [1], the midpoint of inhibition, the IC50, lay at 9.2 µM. Further, in assay [2], the activity at 10 µM turned out to be 60.7% and the inhibition at 10 µM lay within 30 to 40%.

Turning to `CC(=O)n1cc(/C=C/C(=O)N(NC(=O)c2ccccc2)C(C)C)c2ccccc21` [Example 30, (E)-N′-(3-(1-acetyl-1H-indol-3-yl)acryloyl)-N′-isopropylbenzohydrazide], in assay [1], half-maximal inhibition (IC50) was put at 27 µM. The activity at 10 µM in assay [2] was 89%.

In turn, `CC(C)N(NC(=O)c1cccc(OCC(=O)O)c1)C(=O)/C=C/c1cn(C(=O)OC(C)(C)C)c2ccccc12` [Example 19, (E)-2-(3-(2-(3-(1-(tert-butoxycarbonyl)-1H-indol-3-yl)acryloyl)-2-isopropylhydrazinecarbonyl)phenoxy)acetic acid] came in with an IC50 in assay [1] greater than 100 µM. Further, the activity at 10 µM in assay [2] came out at 103%.

In the case of `CC(C)N(NC(=O)c1ccc(F)cc1)C(=O)/C=C/c1cn(C(=O)OC(C)(C)C)c2ccccc12` [Example 44, (E)-tert-butyl 3-(3-(2-(4-fluorobenzoyl)-1-isopropylhydrazinyl)-3-oxoprop-1-enyl)-1H-indole-1-carboxylate], the activity at 10 µM in assay [2] was found to be 94.8%.

For `CC(C)CCn1cc(/C=C/C(=O)N(NC(=O)c2ccc(F)cc2)C(C)C)c2ccccc21` [Example 46, (E)-4-fluoro-N′-(3-(1-isopentyl-1H-indol-3-yl)acryloyl)-N′-isopropylbenzohydrazide], in assay [2], the activity at 10 µM amounted to 63.5% and the inhibition at 10 µM was in the range of 30 to 40%.

In turn, `CC(C)N(NC(=O)c1cccc(O)c1)C(=O)/C=C/c1cn(C(=O)OC(C)(C)C)c2ccccc12` [Example 4, (E)-tert-butyl 3-(3-(2-(3-hydroxybenzoyl)-1-isopropylhydrazinyl)-3-oxoprop-1-enyl)-1H-indole-1-carboxylate] showed an IC50 in assay [1] of 12.4 µM. Also, the activity at 10 µM in assay [2] was found to be 86.7%.

`CC(C)N(NC(=O)c1ccccn1)C(=O)/C=C/c1cn(C(=O)OC(C)(C)C)c2ccccc12` [Example 2, (E)-tert-butyl 3-(3-(1-isopropyl-2-picolinoylhydrazinyl)-3-oxoprop-1-enyl)-1H-indole-1-carboxylate]: 11.2 µM corresponded to half-maximal inhibition in assay [1] (IC50). In addition, in assay [2], the activity at 10 µM turned out to be 64.2% and the inhibition at 10 µM was in the range of 30 to 40%.

For `Cc1ccc(C(=O)NN(C(=O)/C=C/c2cn(C(=O)OC(C)(C)C)c3ccccc23)C(C)C)cc1` [Example 48, (E)-tert-butyl 3-(3-(1-isopropyl-2-(4-methylbenzoyl)hydrazinyl)-3-oxoprop-1-enyl)-1H-indole-1-carboxylate], in assay [2], the activity at 10 µM is 96.7%.

`Cc1cccc(C(=O)NN(C(=O)/C=C/c2cn(C(=O)OC(C)(C)C)c3ccccc23)C(C)C)c1` [Example 47, (E)-tert-butyl 3-(3-(1-isopropyl-2-(3-methylbenzoyl)hydrazinyl)-3-oxoprop-1-enyl)-1H-indole-1-carboxylate]: in assay [2], the activity at 10 µM was 74.7% and the inhibition at 10 µM is 20 to 30%.
